Assay results taken from patent publication US5494893A, “Stylostatin 2” (Arizona Board of Regents, a body corporate acting on behalf …, priority 1994, dated 1996).
In brackets after ≈: the same amount, converted by molar mass. Where a SMILES comes first, the peptide text is derived from it.

Key:
[1] = system: U.S. National Cancer Institute panel of 60 human cancer cell lines; experiment: NCI panel of 60 human cancer cell lines, growth inhibition; format: cell-based; details: NCI 60 cell line panel, quadruplicate tests, average over panel, 48 hours; read-out: overall panel-averaged GI50 concentration
Text: (§1) Current research in the control of cancer in the United States is coordinated by the National Cancer Institute (NCI). To determine whether a substance has anti-cancer properties, the NCI has established a systematic protocol. This protocol, which involves the testing of a substance against a standard cell line panel containing 60 human tumor cell lines, has been verified and has been accepted in scientific circles. The protocol, and the established statistical means for analyzing the results obtained by the standardized testing are fully described in the literature. See: Boyd, Dr. Michael R., Principles & Practice of Oncology, PPO Updates, Volume 3, Number 10, Oct. […]
(§2) Each drug is tested at five (5) doses: 100--10--1--0.1--0.01 μg/ml. Percent Growths are calculated for each dose. […]
(§3) At the start of an experiment, cells from the in vitro cell cultures are inoculated into the appropriate tubes or microtiter plates. One set of control tubes/plates is immediately counted to determine the number of cells at the start of the experiment. This is the "baseline count", or "Tzero reading". At the end of the experiment (48 hours later), a second set of control tubes/plates is analyzed to determine the "Control Growth" value. The growth (or death) of cells relative to the initial quantity of cells is used to define the "Percent of Growth".

OVCAR 3 = OVCAR 3 human cancer cell growth inhibition; format: cell-based; details: OVCAR 3 cell line
Text: as §1, §2, §3

[2] = system: murine P388 lymphocytic leukemia (PS system) cell line; details: earlier reported work (J. Org. Chem. 1992); cited from earlier work

Which GI50 [1] does the source give for `CC[C@H](C)[C@@H]1NC(=O)[C@H](CC(C)C)NC(=O)[C@@H]2CCCN2C(=O)[C@H]([C@@H](C)CC)NC(=O)[C@@H]2CCCN2C(=O)[C@H](CO)NC(=O)[C@H](Cc2ccccc2)NC1=O` [stylostatin 2, cyclo (Pro-Leu-Ile-Phe-Ser-Pro-Ile)] (cyclo(FSPIPLI)) here?
Its GI50 is 6.2 µM.

What about the GI50 (OVCAR 3) of the same compound?
The GI50 was 3.7 µg/mL (≈ 4.82 µM).

Which “P388 (PS system) cell line inhibition” value [2] does the source give for “cyclo (Pro-Phe-Asn-Ser-Leu-Ala-Ile) (PFNSLAI; head-to-tail cyclic; printed: Pro-Phe-Asn-Ser-Leu-Ala-Ile) [stylostatin 1, cycloheptapeptide earlier isolated from the same Stylotella sp. sponge]” here?
Its value is “inhibitor”.
